What was measured:
HeLa cells [1] = assay: Immunofluorescence of spindle (anti-α-tubulin); format: cell-based, human; conditions: 1.21 µM, 24 hr
From the text: PLK1 plays a pivotal role in centrosome maturation and spindle formation during mitosis. Thus, the down-regulation of PLK1 activity would prevent centrosome maturation as well as the formation of a bipolar spindle. Anti-α-tubulin antibody was used for immunofluorescence staining in order to examine the spindle structure in cells treated with the beta-carboline compounds.
HeLa cells were collected and then grown onto cover-slips. […] After washed with washing buffer (Beyotime, P0106) for 3 times, the cells were incubated with blocking buffer (Beyotime, P0102) for 60 min. The primary antibody anti-α-tubulin (Abcam) was used at 1∶200 dilutions; H&L (Cy5)-labeled secondary antibody was used at 1∶200 dilutions. The cover-slips were then mounted with PBS:glycerol (1∶1) mounting medium containing DAPI and examined under an inverted confocal microscope. Images were analyzed by the 3D image software Volocity (Improvision).

HeLa cells [2] = assay: MTT cell proliferation assay, HeLa; format: cell-based; conditions: Homo sapiens, 48 hr
From the text: BI2536 was purchased from Selleck (Selleck, USA).

HeLa cells [3] = assay: FITC-Annexin V/PI apoptosis assay, HeLa; format: cell-based, human
From the text: Staining with Annexin V–FITC and propidium iodide (PI) is commonly used to distinguish apoptotic, necrotic, and dead cells. PI is impermeant to live cells and apoptotic cells at early stages, but it stains dead cells and apoptotic cells at late stages through its binding to the nucleic acids. Apoptotic cells in early or late stages are stained positively for Annexin V-FITC that binds to phosphotidylserine. We used FACS analysis to determine the proportion of HeLa cells positive for Annexin V-FITC (FITC), PI, or both. The HeLa cells with PI^−/PI^+ FITC^+ were counted as apoptotic cells (Figure 5). […] However, 16.19% (3.96+12.23) of HeLa cells became FITC positive after treatment with 1.05 µM DH281 for 48 hr. The treatment with 5.25 µM DH281 induced apoptosis among 89.6% (89.51+0.09) of HeLa cells (Table 5). […] In contrast to HeLa cells, the induction of apoptosis by DH281 was much less efficient in non-cancer MRC5 cells (Table 5). Therefore, we conclude that the treatment with compounds DH281, DH285 and DH287 induces substantial apoptosis in HeLa cells, but non-cancer MRC5 cells are much less sensitive to the treatment. The distinct apoptotic responses of HeLa and MRC5 cells to beta-carboline compounds could explain the selectivity of PLK1 inhibitors toward cancer cells.
HeLa cells were either treated with 0, 0.21, 1.05 and 5.25 µM of DH281, DH285 and DH287 for 48 hr, or treated with 1.21 µM compounds for 24, 48 and 72 hr, while MRC5 cells were exposed to compounds at 0, 0.21, 1.05, and 5.25 µM for 48 hr. The cultured cells were harvested, washed three times with PBS, and resuspended in 500 µl binding buffer (10 mM Hepes/sodium hydroxide (pH7.4), 140 mM sodium chloride, and 2.5 mM CaCl2). Then 5 µl FITC-labeled Annexin V (Zhongshan JinQiao Biotechnology Ltd., Beijing) was added and the cells were incubated in the dark for 10 min. We added 5 µl of propidium iodide (PI) (10 µg/ml in binding buffer) to each sample before flow cytometry analysis.

[4] = system: Wee1 protein levels in HeLa cells; assay: Wee1 protein level (Western blotting); format: cell-based, human; conditions: 1.21 µM, 24 hr, compared to control cells
Experimental: As the inhibitory kinase for cyclin-dependent kinase (CDK), Wee1 is one of the substrates of PLK1 and this phosphorylation stimulates Wee1 degradation. We expect that the inhibition of PLK1 impairs the phosphorylation of Wee1, thereby resulting in elevated Wee1 protein levels. To test this possibility, we examined the protein levels of Wee1 in HeLa cells after treatment with 1.21 µM beta-carboline compounds for 24 hr. […] PLK1 also phosphorylates cyclin B1 and this phosphorylation promotes the nuclear localization of cyclin B1 [36]. After treatment with these beta-carboline compounds, a slight increase of cyclin B1 protein was observed (Figure 6B), and this increase could be a consequence of accumulation of cells in G2/M phase. However, the change of cyclin B1 levels is much less significant compared to the increase of Wee1 levels after treatment with these compounds.
HeLa cells were incubated with or without 1.21 µM DH281, DH285 and DH287 for 24 hr. The cells were washed twice with cold 1×PBS and lysed in RAPI buffer (Applygen technologies Inc.) for 30 min and centrifuged at 14,000 rpm for 20 min at 4°C. We separated 15 µl of total protein (1 µg/ µl) with 12% SDS-PAGE gels and transferred the proteins to PVDF membrane. […] The protein bands were detected using ECL System (Piscataway, New Jersey, USA). […]

[5] = system: four cancer cell lines (HepG2, MG63, HeLa and PC3); assay: Growth inhibition of four cancer cell lines; format: cell-based, Human
From the text: In order to find more efficient antitumor small molecules targeting PLK1, we synthesized additional 18 beta-carboline compounds and the structures of these compounds are shown in Figure 1. The growth inhibition of four cancer cell lines (HepG2, MG63, HeLa and PC3) by these compounds was examined. […] We selected DH281, DH285 and DH287 for further studies.

MRC5 cells = assay: cells; conditions: Homo sapiens, MRC5, 48 h, read-out: IC50 MRC5, MTT, 48 hr, non-cancer cells
Experimental: All the beta-carboline derivatives were provided by Xinjiang Huashidan Pharmaceutical Co. Ltd. The culture media and fetal bovine serum (FBS) were purchased from Hyclone (Hyclone Laboratories Inc., USA). […] All the cell lines were obtained from the Cell Culture Centre, Institute of Basic Medical Science, Chinese Academy of Medical Science and incubated at 37°C supplied with 5% CO2. HeLa cells were grown in standard DMEM with 10% FBS.
MRC5, HeLa, HepG2, PC3 and MG63 cells were seeded at 3000–6000 cells/well (200 µl/well) in a 96-well plate and incubated overnight. Then different concentrations of compounds were added into the cell cultures with a final concentration of 0.1% DMSO and incubated for an additional 48 hr. After that, 22 µl MTT solution (5 mg/ml) was added into each well and incubated at 37°C for 4 hr.

Compound	spindle structure (HeLa cells [1])	IC50 (HeLa cells [2])	PI+ FITC+ (late apoptotic cells) (HeLa cells [3]; 0.21 µM, 48 hr)	PI+ FITC− (dead cells) (HeLa cells [3]; 0.21 µM, 48 hr)	PI− FITC+ (early apoptotic cells) (HeLa cells [3]; 0.21 µM, 48 hr)	PI− FITC− (live cells) (HeLa cells [3]; 0.21 µM, 48 hr)	PI+ FITC+ (late apoptotic cells) (HeLa cells [3]; 1.05 µM, 48 hr)	PI+ FITC− (dead cells) (HeLa cells [3]; 1.05 µM, 48 hr)	PI− FITC+ (early apoptotic cells) (HeLa cells [3]; 1.05 µM, 48 hr)	PI− FITC− (live cells) (HeLa cells [3]; 1.05 µM, 48 hr)	PI+ FITC+ (late apoptotic cells) (HeLa cells [3]; 1.21 µM, 24 hr)	PI+ FITC− (dead cells) (HeLa cells [3]; 1.21 µM, 24 hr)	PI− FITC+ (early apoptotic cells) (HeLa cells [3]; 1.21 µM, 24 hr)	PI− FITC− (live cells) (HeLa cells [3]; 1.21 µM, 24 hr)	PI+ FITC+ (late apoptotic cells) (HeLa cells [3]; 1.21 µM, 48 hr)	PI+ FITC− (dead cells) (HeLa cells [3]; 1.21 µM, 48 hr)	PI− FITC+ (early apoptotic cells) (HeLa cells [3]; 1.21 µM, 48 hr)	PI− FITC− (live cells) (HeLa cells [3]; 1.21 µM, 48 hr)	PI+ FITC+ (late apoptotic cells) (HeLa cells [3]; 1.21 µM, 72 hr)	PI− FITC+ (early apoptotic cells) (HeLa cells [3]; 1.21 µM, 72 hr)	also measured
Cc1c2c(cc[n+]1Cc1ccccc1)c1ccc(OCc3ccccc3)cc1n2Cc1ccccc1 [DH287]	induced formation of monopolar spindles	1.82 ± 0.15 µM	2.16%	3.48%	1.12%	93.25%	5.20%	9.81%	7.20%	77.8%	10.88%	3.56%	10.39%	75.17%	8.31%	7.05%	25.70%	58.94%	1.19%	55.98%	PI− FITC− (live cells) (HeLa cells [3]; 1.21 µM, 72 hr): 38.27%; PI+ FITC+ (late apoptotic cells) (HeLa cells [3]; 5.25 µM, 48 hr): 5.58%; PI+ FITC− (dead cells) (HeLa cells [3]; 5.25 µM, 48 hr): 8.71%; PI− FITC+ (early apoptotic cells) (HeLa cells [3]; 5.25 µM, 48 hr): 65.36%; PI− FITC− (live cells) (HeLa cells [3]; 5.25 µM, 48 hr): 20.35%; Wee1 protein level [4]: high levels of Wee1 protein; antitumor activity (growth inhibition) [5]: very strong growth inhibition; IC50 (MRC5 cells): 3.03 µM
Cc1c2c(cc[n+]1Cc1ccccc1)c1ccc(OCc3ccc(F)cc3)cc1n2CCCc1ccccc1 [DH281]	induced formation of monopolar spindles	0.51 ± 0.08 µM	3.22%	3.24%	0.97%	92.57%	3.96%	10.22%	12.23%	73.59%	10.65%	2.52%	1.42%	85.41%	8.91%	3.31%	16.20%	71.58%	5.97%	39.54%	FITC positive (apoptotic) cells, early + late (HeLa cells [3]; 1.05 µM, 48 hr): 16.19%; PI+ FITC− (dead cells) (HeLa cells [3]; 1.21 µM, 72 hr): 1.41%; PI− FITC− (live cells) (HeLa cells [3]; 1.21 µM, 72 hr): 53.08%; FITC positive (apoptotic) cells, early + late (HeLa cells [3]; 5.25 µM, 48 hr): 89.6%; PI+ FITC+ (late apoptotic cells) (HeLa cells [3]; 5.25 µM, 48 hr): 0.09%; PI+ FITC− (dead cells) (HeLa cells [3]; 5.25 µM, 48 hr): 0.37%; PI− FITC+ (early apoptotic cells) (HeLa cells [3]; 5.25 µM, 48 hr): 89.51%; PI− FITC− (live cells) (HeLa cells [3]; 5.25 µM, 48 hr): 10.03%; Wee1 protein level [4]: high levels of Wee1 protein; antitumor activity (growth inhibition) [5]: very strong growth inhibition; IC50 (MRC5 cells): 4.73 ± 0.51 µM
